Test results: US8758816B2, “Compositions comprising azelastine and methods of use thereof” (priority 2004, dated 2014)
Where a name gives a salt, the structure may show the parent alone.

Test system: patients with seasonal allergic rhinitis (SAR)
Assay: MP 428 two-week randomized double-blind study: Total Nasal Symptom Score (TNSS), change from baseline
Assay type: in vivo, human
Parameters: key to Change from Baseline in AM TNSS, Mean / Change from Baseline in AM TNSS, LS Mean / Change from Baseline in AM TNSS, Median: TNSS sum of 4 symptoms each 0-3 (0=none, 3=severe); change from baseline
Protocol: A two-week, randomized, double-blind study, which evaluated the effects of the co-administration of ASTELIN® (azelastine hydrochloride (HCl)) and FLONASE® (fluticasone propionate) compared to either product alone in patients with seasonal allergic rhinitis (SAR) was conducted during the 2006 Texas mountain cedar season. After a 5-day placebo lead-in period, 151 patients with moderate-to-severe allergic rhinitis symptoms were randomized to either: (1) (49 total patients) ASTELIN® (azelastine hydrochloride (HCl)) plus placebo saline nasal spray 2 sprays per nostril, 15 minutes apart, twice daily (AM & PM); (2) (50 total patients) FLONASE® (fluticasone propionate) plus placebo saline nasal spray, 2 sprays per nostril, 15 minutes apart, once daily (AM) and two sessions of placebo saline nasal spray, 2 sprays per nostril, 15 minutes apart (PM); or (3) (52 total patients) the co-administration of ASTELIN® (azelastine hydrochloride (HCl)) 2 sprays per nostril plus FLONASE® (fluticasone propionate) 2 sprays per nostril (AM), 15 minutes apart, and ASTELIN® (azelastine hydrochloride (HCl)) 2 sprays per nostril plus placebo saline nasal spray, 15 minutes apart, (PM) for a 2-week double-blind treatment period.
The primary efficacy variable was the change from baseline in the Total Nasal Symptom Score (TNSS), which comprised sneezing, itchy nose, runny nose, and nasal congestion (individual symptoms scores were assigned a value between 0 and 3, where 0=no symptoms and 3=severe symptoms). This study was not statistically designed to assess the differences between ASTELIN® and FLONASE®.

[1] = Day 5, Intent-to-Treat Population
[2] = Day 6, Intent-to-Treat Population
[3] = Day 7, Intent-to-Treat Population
[4] = Day 8, Intent-to-Treat Population
[5] = Day 9, Intent-to-Treat Population

CN1CCCC(n2nc(Cc3ccc(Cl)cc3)c3ccccc3c2=O)CC1 (racemic) [Azelastine, (±)-1-(2H)-phthalazinone, 4-[(4-chlorophenyl)methyl]-2-(hexahydro-1-methyl-1H-azepin-4-yl)-, mono-hydrochloride]
Percent Change from Baseline in AM and PM Combined TNSS, Mean [1]: −23.15% | Percent Change from Baseline in AM and PM Combined TNSS, Median [1]: −18.64% | Percent Change from Baseline in PM TNSS, LS Mean [1]: −22.87% | Percent Change from Baseline in PM TNSS, Mean [1]: −22.50% | Percent Change from Baseline in PM TNSS, Median [1]: −13.04% | Change from Baseline in AM and PM Combined TNSS, LS Mean (Day 5, Intent-to-Treat Population, ANCOVA model): −4.46 | Change from Baseline in AM and PM Combined TNSS, LS Mean (Day 5, Per-Protocol Population): −4.43 | Change from Baseline in AM and PM Combined TNSS, Mean (Day 5, Per-Protocol Population): −4.48 | Change from Baseline in AM and PM Combined TNSS, Median (Day 5, Per-Protocol Population): −3.67 | Percent Change from Baseline in AM and PM Combined TNSS, LS Mean (Day 5, Per-Protocol Population): −23.17% | Percent Change from Baseline in AM and PM Combined TNSS, Mean (Day 5, Per-Protocol Population): −23.15% | Percent Change from Baseline in AM and PM Combined TNSS, Median (Day 5, Per-Protocol Population): −18.64% | Change from Baseline in AM TNSS, LS Mean [2]: −2.01 | Change from Baseline in AM TNSS, Mean [2]: −2.01 | Change from Baseline in AM TNSS, Median [2]: −2.00 | Change from Baseline in AM and PM Combined TNSS, Mean [2]: −4.44 | Change from Baseline in AM and PM Combined TNSS, Median [2]: −3.70 | Change from Baseline in PM TNSS, LS Mean [2]: −2.38 | Change from Baseline in PM TNSS, Mean [2]: −2.43 | Change from Baseline in PM TNSS, Median [2]: −2.00 | Percent Change from Baseline in AM TNSS, LS Mean [2]: −21.14% | Percent Change from Baseline in AM TNSS, Mean [2]: −21.35% | Percent Change from Baseline in AM TNSS, Median [2]: −16.67% | Percent Change from Baseline in AM and PM Combined TNSS, LS Mean [2]: −23.15% | Percent Change from Baseline in AM and PM Combined TNSS, Mean [2]: −23.13% | Percent Change from Baseline in AM and PM Combined TNSS, Median [2]: −18.78% | Percent Change from Baseline in PM TNSS, LS Mean [2]: −25.18% | Percent Change from Baseline in PM TNSS, Mean [2]: −24.82% | Percent Change from Baseline in PM TNSS, Median [2]: −20.45% | Change from Baseline in AM and PM Combined TNSS, LS Mean (Day 6, Intent-to-Treat Population, ANCOVA model): −4.40 | Change from Baseline in AM and PM Combined TNSS, LS Mean (Day 6, Per-Protocol Population): −4.38 | Change from Baseline in AM and PM Combined TNSS, Mean (Day 6, Per-Protocol Population): −4.44 | Change from Baseline in AM and PM Combined TNSS, Median (Day 6, Per-Protocol Population): −3.70 | Percent Change from Baseline in AM and PM Combined TNSS, LS Mean (Day 6, Per-Protocol Population): −23.16% | Percent Change from Baseline in AM and PM Combined TNSS, Mean (Day 6, Per-Protocol Population): −23.13% | Percent Change from Baseline in AM and PM Combined TNSS, Median (Day 6, Per-Protocol Population): −18.78% | Change from Baseline in AM TNSS, LS Mean [3]: −2.52 | Change from Baseline in AM TNSS, Mean [3]: −2.52 | Change from Baseline in AM TNSS, Median [3]: −2.20 | Change from Baseline in AM and PM Combined TNSS, Mean [3]: −5.09 | Change from Baseline in AM and PM Combined TNSS, Median [3]: −4.67 | Change from Baseline in PM TNSS, LS Mean [3]: −2.54 | Change from Baseline in PM TNSS, Mean [3]: −2.57 | Change from Baseline in PM TNSS, Median [3]: −2.25 | Percent Change from Baseline in AM TNSS, LS Mean [3]: −26.26% | Percent Change from Baseline in AM TNSS, Mean [3]: −26.58% | Percent Change from Baseline in AM TNSS, Median [3]: −25.00% | Percent Change from Baseline in AM and PM Combined TNSS, LS Mean [3]: −26.40% | Percent Change from Baseline in AM and PM Combined TNSS, Mean [3]: −26.52% | Percent Change from Baseline in AM and PM Combined TNSS, Median [3]: −23.31% | Percent Change from Baseline in PM TNSS, LS Mean [3]: −26.39% | Percent Change from Baseline in PM TNSS, Mean [3]: −26.20% | Percent Change from Baseline in PM TNSS, Median [3]: −23.81% | Change from Baseline in AM and PM Combined TNSS, LS Mean (Day 7, Intent-to-Treat Population, ANCOVA model): −5.05 | Change from Baseline in AM and PM Combined TNSS, LS Mean (Day 7, Per-Protocol Population): −5.01 | Change from Baseline in AM and PM Combined TNSS, Mean (Day 7, Per-Protocol Population): −5.09 | Change from Baseline in AM and PM Combined TNSS, Median (Day 7, Per-Protocol Population): −4.67 | Percent Change from Baseline in AM and PM Combined TNSS, LS Mean (Day 7, Per-Protocol Population): −26.32% | Percent Change from Baseline in AM and PM Combined TNSS, Mean (Day 7, Per-Protocol Population): −26.52% | Percent Change from Baseline in AM and PM Combined TNSS, Median (Day 7, Per-Protocol Population): −23.31% | Change from Baseline in AM TNSS, LS Mean [4]: −2.65 | Change from Baseline in AM TNSS, Mean [4]: −2.62 | Change from Baseline in AM TNSS, Median [4]: −2.50 | Change from Baseline in AM and PM Combined TNSS, Mean [4]: −5.38 | Change from Baseline in AM and PM Combined TNSS, Median [4]: −5.00 | Change from Baseline in PM TNSS, LS Mean [4]: −2.69 | Change from Baseline in PM TNSS, Mean [4]: −2.76 | Change from Baseline in PM TNSS, Median [4]: −2.75 | Percent Change from Baseline in AM TNSS, LS Mean [4]: −27.73% | Percent Change from Baseline in AM TNSS, Mean [4]: −27.83% | Percent Change from Baseline in AM TNSS, Median [4]: −25.00% | Percent Change from Baseline in AM and PM Combined TNSS, LS Mean [4]: −28.22% | Percent Change from Baseline in AM and PM Combined TNSS, Mean [4]: −28.13% | Percent Change from Baseline in AM and PM Combined TNSS, Median [4]: −23.73% | Percent Change from Baseline in PM TNSS, LS Mean [4]: −27.94% | Percent Change from Baseline in PM TNSS, Mean [4]: −28.17% | Percent Change from Baseline in PM TNSS, Median [4]: −27.27% | Change from Baseline in AM and PM Combined TNSS, LS Mean (Day 8, Intent-to-Treat Population, ANCOVA model): −5.37 | Change from Baseline in AM and PM Combined TNSS, LS Mean (Day 8, Per-Protocol Population): −5.33 | Change from Baseline in AM and PM Combined TNSS, Mean (Day 8, Per-Protocol Population): −5.38 | Change from Baseline in AM and PM Combined TNSS, Median (Day 8, Per-Protocol Population): −5.00 | Percent Change from Baseline in AM and PM Combined TNSS, LS Mean (Day 8, Per-Protocol Population): −28.14% | Percent Change from Baseline in AM and PM Combined TNSS, Mean (Day 8, Per-Protocol Population): −28.13% | Percent Change from Baseline in AM and PM Combined TNSS, Median (Day 8, Per-Protocol Population): −23.73% | Change from Baseline in AM TNSS, LS Mean [5]: −2.57 | Change from Baseline in AM TNSS, Mean [5]: −2.52
